Experimental data published in US8933195B2, “Histone deacetylase inhibitors and synthetic method thereof and use thereof in manufacture of medicaments” (Nanjing Yoko Biomedical R & D Ltd., priority 2011, dated 2015).
Like-named read-outs stand apart in the source and are kept apart here.

Tests used:
[1] = molecular target: HDAC1 (Homo sapiens, UniProt Q13547); test: Measurement of biochemical activities of HDAC (fluorescently-labeled acetylated lysine substrate)
Experimental: (§1) 1. Measurement principles: the measurement of biochemical activities of compounds is determined according to the degree of the compounds inhibiting the deacylation of HDAC enzyme. After the fluorescently-labeled substrate containing acetylated lysine side chain reacts with the HDAC enzyme, the fluorogenic substrate is deacetylated. After the deacetylated fluorescently-labeled substrate is cracked by the enzyme, a fluorescent substance is released. The fluorescent substance generates emitting light of 460 nm under the excitation of light of 360 nm.
(§2) 2. Detailed steps: the substrate of HDAC is diluted to […] (the reaction concentration is […]) with a reaction buffer. HDAC enzyme is diluted to a proper concentration. The compounds to be detected in different concentrations are added. The mixture reacts for 30 min at 37. Then the developer with the same volume and twice concentration of the substrate is added into the mixture. The mixture is incubated for 15 min at room temperature. Finally, the reading is measured with a micro plate scanner. The excitation light is 360 nm, the emitting light is 460 nm, and the data is processed with Prime 4 software.

[2] = molecular target: T1, HDAC7 (Homo sapiens, UniProt Q8WUI4); test: as above
T1 sequence (Q8WUI4 1-952): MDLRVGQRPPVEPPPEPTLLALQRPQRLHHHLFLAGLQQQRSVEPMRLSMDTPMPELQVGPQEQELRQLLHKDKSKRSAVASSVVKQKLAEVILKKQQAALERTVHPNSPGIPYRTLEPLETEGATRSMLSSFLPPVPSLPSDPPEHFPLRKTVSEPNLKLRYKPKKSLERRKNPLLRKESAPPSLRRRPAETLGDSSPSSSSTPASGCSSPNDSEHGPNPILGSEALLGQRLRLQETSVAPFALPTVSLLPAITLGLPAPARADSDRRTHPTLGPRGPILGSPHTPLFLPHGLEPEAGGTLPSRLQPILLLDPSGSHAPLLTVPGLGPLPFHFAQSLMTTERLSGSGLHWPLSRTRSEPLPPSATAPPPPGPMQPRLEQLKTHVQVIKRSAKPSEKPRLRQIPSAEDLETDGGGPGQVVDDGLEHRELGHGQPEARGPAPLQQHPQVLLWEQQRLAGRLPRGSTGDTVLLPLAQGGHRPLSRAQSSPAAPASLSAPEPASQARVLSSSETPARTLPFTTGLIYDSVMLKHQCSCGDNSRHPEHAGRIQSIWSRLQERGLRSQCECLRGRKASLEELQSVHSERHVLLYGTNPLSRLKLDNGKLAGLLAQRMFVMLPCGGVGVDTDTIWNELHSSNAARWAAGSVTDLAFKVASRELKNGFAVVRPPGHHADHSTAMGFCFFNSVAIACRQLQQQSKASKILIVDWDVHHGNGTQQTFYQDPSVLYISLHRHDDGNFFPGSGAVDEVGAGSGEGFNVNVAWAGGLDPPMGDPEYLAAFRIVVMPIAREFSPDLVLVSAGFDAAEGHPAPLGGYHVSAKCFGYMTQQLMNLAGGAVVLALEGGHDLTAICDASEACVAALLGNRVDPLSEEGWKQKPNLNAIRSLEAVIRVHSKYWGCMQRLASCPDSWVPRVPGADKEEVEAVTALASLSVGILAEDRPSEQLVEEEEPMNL
Experimental: as §1, §2

[3] = tested on: Incap; test: MTT cancer cell growth inhibition; type: cell-based; details: 72 h
[4] = tested on: U937 (human leukemia cells); test: MTT cancer cell growth inhibition; type: cell-based; details: U-937, 72 h
Source text: (§3) 1. Experimental principles: the inhibition of cancer cell growth with compounds is detected by an MTT method. The principle of the MTT method is as follows: yellow thiazolyl blue may penetrate through cell membranes and enter into cells, succinate dehydrogenase in living cell mitochondria may reduce exogenous MTT into water-insoluble ianthinus acicular Formazan crystals which deposit in the cells, the crystals can be dissolved with dimethyl sulfoxide (DMSO), the optical density of the crystals is detected with an enzyme-linked immunometric meter at the wavelength of 490 nm/570 nm, and the number of cells can be indirectly reflected.
(§4) 2. Experimental materials: the used cancer cell lines are Hela (human cervical cancer cells), MCF-7 (human breast cancer cells), BGC-823 (human gastric cancer cells), A549 (human lung cancer cells), HT1080 (human fibrosarcoma cells), A431 (human epidermal squamous cell carcinoma cells), HUVEC (human umbilical vein endothelial cells), DU145 (human prostate cancer cells), K562 (human leukemia cells), U937 (human leukemia cells), Pac-1 (human pancreatic cancer cells), and MOLT-4 (human acute lymphoblastic leukemia cells), which are cultured with a DMEM+10% FBS culture medium or a 1640+10% FBS culture medium, respectively.
(§5) Experimental groups: 190 μl cell suspension+10 μl pharmaceuticals in different concentrations (the final concentration is 10^−5-10^−10M)
(§6) Negative control group: 190 μl cell suspension+10 μl 2% DMSO (the final concentration of DMSO is 0.1%)
(§7) a) Cells are inoculated on a 96-pore plate, with 1500 cells and 190 μl for each hole, and cultured overnight in a 5% CO2 incubator at 37.
(§8) b) 10 μl of different pharmaceuticals is added into each hole the next day, with the final concentration of the pharmaceuticals of 10^−5-10^−10M and three parallel holes, and incubated for 72 h in a 5% CO2 incubator at 37.
(§9) c) 20 μl of 5 mg/mL MTT is added into each hole, and incubated for 4 h in a 5% CO2 incubator at 37.
(§10) d) Supernatant is removed. 100 μl of DMSO is added into each hole and vibrated.
(§11) e) The reading is 570 nm. The cell survival rate is calculated.

[5] = tested on: Hela (human cervical cancer cells); test: MTT cancer cell growth inhibition; type: cell-based; details: 72 h
Source text: as §3, §4, §5, §6, §7, §8, §9, §10, §11

[6] = tested on: BGC-823 (human gastric cancer cells); test: MTT cancer cell growth inhibition; type: cell-based; details: 72 h, read-out: GI50 BGC823
Source text: as §3, §4, §5, §6, §7, §8, §9, §10, §11

[7] = tested on: DU145 (human prostate cancer cells); test: MTT cancer cell growth inhibition; type: cell-based; details: DU-145, 72 h
Source text: as §3, §4, §5, §6, §7, §8, §9, §10, §11

[8] = tested on: PANC-1; test: MTT cancer cell growth inhibition; type: cell-based; details: Homo sapiens, 72 h
Source text: as §3, §4, §5, §6, §7, §8, §9, §10, §11

[9] = tested on: MCF-7 (human breast cancer cells); test: MTT cancer cell growth inhibition; type: cell-based; details: MCF7, 72 h
Source text: as §3, §4, §5, §6, §7, §8, §9, §10, §11

[10] = tested on: HT1080 (human fibrosarcoma cells); test: MTT cancer cell growth inhibition; type: cell-based; details: HT-1080, 72 h
Source text: as §3, §4, §5, §6, §7, §8, §9, §10, §11

[11] = tested on: A549 (human lung cancer cells); test: MTT cancer cell growth inhibition; type: cell-based; details: 72 h
Source text: as §3, §4, §5, §6, §7, §8, §9, §10, §11

[12] = tested on: MOLT-4 (human acute lymphoblastic leukemia cells); test: MTT cancer cell growth inhibition; type: cell-based; details: 72 h
Source text: as §3, §4, §5, §6, §7, §8, §9, §10, §11

Chain of HDAC1 (Q13547 whole entry, species assumed): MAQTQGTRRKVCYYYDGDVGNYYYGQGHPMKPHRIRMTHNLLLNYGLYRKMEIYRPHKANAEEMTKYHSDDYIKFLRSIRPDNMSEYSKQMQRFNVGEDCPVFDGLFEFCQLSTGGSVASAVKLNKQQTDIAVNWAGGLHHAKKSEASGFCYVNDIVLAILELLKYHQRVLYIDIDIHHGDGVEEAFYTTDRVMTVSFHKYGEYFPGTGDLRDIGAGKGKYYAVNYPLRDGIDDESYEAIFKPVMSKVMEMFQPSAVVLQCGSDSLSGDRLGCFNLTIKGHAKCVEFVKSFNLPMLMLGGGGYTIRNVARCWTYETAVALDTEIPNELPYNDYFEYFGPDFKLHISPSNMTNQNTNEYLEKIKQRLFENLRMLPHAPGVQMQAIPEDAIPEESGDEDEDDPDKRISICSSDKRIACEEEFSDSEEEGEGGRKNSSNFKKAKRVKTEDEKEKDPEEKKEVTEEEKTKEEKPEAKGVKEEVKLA

Row | SMILES | IC50 ([1]; read-out: IC50 HDAC1) [µM] | IC50 HDAC7 [2] | GI50 [3] [µM] | GI50 [4] [µM] | GI50 [5] [µM] | GI50 [6] [µM] | GI50 [7] [µM] | GI50 [8] [µM] | GI50 [9] [µM] | GI50 [10] [µM] | GI50 [11] [µM] | GI50 [12] [µM] | IC50 [1] [µM]
1 | C/C=C1\NC(=O)C2N=C(CNC(=O)C[C@@H](/C=C/CCSC(=O)CCCCCCC)OC(=O)[C@H](C(C)C)NC1=O)S[C@@H]2C (stereo partly drawn) [Compound 2-3] | < 10 | no activity | 0.5 | 1.23 | 26.5 | 1.56 | 0.56 | 2.65 | 21.4 | 40.5 | 2.6 | 23.1 | –
2 | C/C=C1\NC(=O)C2C=NC(=N2)CNC(=O)C[C@@H](/C=C/CCSC(=O)CCCCCCC)OC(=O)[C@H](C(C)C)NC1=O (stereo partly drawn) [Compound 2-4] | < 10 | no activity | 85.2 | 18.6 | 23 | 2.6 | 6.4 | 4.2 | 52.6 | 1.6 | 4.5 | 0.9 | –
3 | C/C=C1\NC(=O)C2=NC(=NC2)CNC(=O)C[C@@H](/C=C/CCSC(=O)CCCCCCC)OC(=O)[C@H](C(C)C)NC1=O [Compound 2-5] | < 10 | no activity | 0.56 | 21 | 12 | 20.6 | 5.46 | 26.4 | 26 | 1.02 | 2.13 | 1.03 | –
4 | C/C=C1\NC(=O)c2cccc(c2)CNC(=O)C[C@@H](/C=C/CCSC(=O)CCCCCCC)OC(=O)[C@H](C(C)C)NC1=O [Compound 2-6] | < 10 | no activity | 11.7 | 12.6 | 0.5 | 56.2 | 0.56 | 45 | 0.65 | 12 | 4.2 | 64.5 | –
5 | C/C=C1\NC(=O)c2ccnc(c2)CNC(=O)C[C@@H](/C=C/CCSC(=O)CCCCCCC)OC(=O)[C@H](C(C)C)NC1=O [Compound 2-7] | < 10 | no activity | 0.65 | 0.009 | 0.1 | 0.1 | 0.006 | 0.8 | 0.09 | 0.08 | 0.09 | 2.1 | –
6 | C=C1NC(=O)c2csc(n2)CNC(=O)C[C@@H](/C=C/CCSC(=O)CCCCCCC)OC(=O)[C@H](C(C)C)NC1=O [Compound 3-1] | < 10 | no activity | 5.4 | 21.5 | 0.01 | 1.2 | 2.03 | 10.6 | 2.1 | 1.06 | 0.35 | 0.15 | –
7 | CCCCCCCC(=O)SCC/C=C/[C@@H]1CC(=O)NCc2nc(cs2)C(=O)N[C@H](CC)C(=O)N[C@@H](C(C)C)C(=O)O1 [Compound 3-2] | < 10 | no activity | 1.42 | 5.26 | 0.6 | 1.02 | 1.06 | 1.23 | 0.1 | 1.35 | 0.36 | 1.06 | –
8 | CCCCCCCC(=O)SCC/C=C/[C@@H]1CC(=O)NCc2nc(cs2)C(=O)NCC(=O)N[C@@H](C(C)C)C(=O)O1 [Compound 3-3] | < 10 | no activity | 0.45 | 0.14 | 0.45 | 5.94 | 0.05 | 4.13 | 1.2 | 0.06 | 1.09 | 2.12 | –
9 | C/C=C1\NC(=O)c2csc(n2)[C@H](C(C)C)NC(=O)C[C@@H](/C=C/CCSC(=O)CCCCCCC)OC(=O)[C@H](C(C)C)NC1=O [Compound 4-1] | – | no activity | 1.03 | 1.56 | 0.26 | 0.23 | 1.65 | 1.34 | 0.13 | 0.85 | 0.54 | 4.02 | < 10
